Measured values as given in US20110268653A1, “Compositions and Methods Related to Acid Stable Lipid Nanospheres” (The Board of Regents of the University of Texas System, priority 2010, published 2011).

`CCCCCCCCCCCCCCCCCC(=O)N1C(CCCCCCCCCCC)NC(=O)CC1C(=O)O` (stereo not shown) [Lipid 1e, 6-Oxo-3-stearoyl-2-undecylhexahydropyrimidine-4-carboxylic acid] showed a melting point of 105 to 109 °C.
Work on `CCCCCCCCCCCCCCCCCC(=O)N1C(CCCCCCCCCCCCCCCCC)NC(=O)CC1C(=O)O` (stereo not shown) [ALA17, 17, 2-Heptadecyl-6-oxo-3-stearoylhexahydropyrimidine-4-carboxylic acid] yielded a melting point of 107 to 111 °C.
For `CCCCCC(=O)N1C(CCCCC)NC(=O)CC1C(=O)O` (stereo not shown) [Lipid 1a, 3-Hexanoyl-6-oxo-2-pentylhexahydropyrimidine-4-carboxylic acid], the melting point was 55 to 56 °C.
Compound `CCCCCCCCCCCC(=O)N1C(CCCCC)NC(=O)CC1C(=O)O` (stereo not shown) [Lipid 1b, 3-Dodecanoyl-6-oxo-2-pentylhexahydropyrimidine-4-carboxylic acid] has a melting point of 118 to 120 °C.
`CCCCCCCCCCCC1NC(=O)CC(C(=O)O)N1C(=O)CCCCC` (stereo not shown) [Lipid 1c, 3-Hexanoyl-6-oxo-2-undecylhexahydropyrimidine-4-carboxylic acid] gave a melting point of 106 to 107 °C.
In the case of `CCCCCCCCCCCCCCCCCC1NC(=O)CC(C(=O)O)N1C(=O)CCCCCCCCCCC` (stereo not shown) [Lipid 1f, 3-Dodecanoyl-2-heptadecyl-6-oxohexahydropyrimidine-4-carboxylic acid], the melting point is reported as 104 to 107 °C.
`CCCCCCCCCCCC(=O)N1C(CCCCCCCCCCC)NC(=O)CC1C(=O)O` (stereo not shown) [Lipid 1d, 3-Dodecanoyl-6-oxo-2-undecylhexahydropyrimidine-4-carboxylic acid] gave a melting point of 110 to 112 °C.
